Assays:
[1] = target: T1, L-selectin-Ig (Homo sapiens, UniProt P14151); experiment: Binding of biotinylated oligosaccharide fraction (streptavidin-alkaline phosphatase) to L-selectin-Ig; conditions: FIG. 7 panel D; absorbance at 620 nm
T1 construct: purchased R & D Systems Inc
Experimental: (§1) First, each of oligosaccharides was biotinylated with biotin-LC-hydrazide at a reducing end. To each of the fraction a, the fraction c, the fraction e-1 and the fraction e-2 obtained in the above item (2), 125 mM EZ-link™ biotin-LC-hydrazide and 1M NaCNBH3 in dimethyl sulfoxide/acetic acid (7:3) were added. The resulting reaction mixture was incubated at 65° C. for 3 hours, and then incubated at 37° C. for 12.5 to 18.5 hours to biotinylate an oligosaccharide. Each of the resulting reaction products was subjected to Sephadex G-25 column as described above, to remove unreacted biotin-LC-hydrazide, thereby collecting the fraction containing a biotinylated oligosaccharide. Then, the resulting fraction was evaporated to dryness.
(§2) Then, a part of a fraction containing 16 pmol of each biotinylated oligosaccharide was dissolved in 0.5 ml of the buffer A, and thereafter, each of the resulting solutions and 1 μl (2 pmol) of streptavidin-conjugated alkaline phosphatase [manufactured by Promega] were incubated at 4° C. overnight.
(§3) Each of the resulting products was 3-fold diluted with the buffer A respectively. […] Binding was determined by measuring absorbance at 620 nm using Blue Phos™ substrate. […]

[2] = system: P-selectin-Ig; experiment: Binding of biotinylated oligosaccharide fraction (streptavidin-alkaline phosphatase) to P-selectin-Ig; conditions: FIG. 7 panel D; absorbance at 620 nm
Experimental: as §1, §2, §3

[3] = system: secondary lymphoid tissue chemokine; experiment: Binding of biotinylated oligosaccharide fraction (streptavidin-alkaline phosphatase) to SLC; conditions: FIG. 7 panel D; absorbance at 620 nm
Experimental: as §1, §2, §3

[4] = target: T2, γ-interferon inducible protein-10 (Homo sapiens, UniProt P02778); experiment: Binding of biotinylated oligosaccharide fraction (streptavidin-alkaline phosphatase) to IP-10; conditions: FIG. 7 panel D; absorbance at 620 nm
Experimental: as §1, §2, §3

[5] = target: T3, stromal cell-derived factor-1β (Homo sapiens, UniProt P48061); experiment: Binding of biotinylated oligosaccharide fraction (streptavidin-alkaline phosphatase) to SDF-1β; conditions: FIG. 7 panel D; absorbance at 620 nm
T3 construct: purchased Pepro Tech
Experimental: as §1, §2, §3

[6] = target: T4, platelet factor 4 (Homo sapiens, UniProt P02776); experiment: Binding of biotinylated oligosaccharide fraction (streptavidin-alkaline phosphatase) to PF4; conditions: FIG. 7 panel D; absorbance at 620 nm
T4 sequence (P02776 32-101): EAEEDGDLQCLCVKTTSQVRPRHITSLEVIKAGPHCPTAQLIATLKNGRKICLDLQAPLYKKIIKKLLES
Experimental: as §1, §2, §3

[7] = system: E-selectin-Ig; experiment: Immunoprecipitation of versican from ACHN conditioned medium with E-selectin-Ig; format: binding; conditions: FIG. 1 lanes 13 and 14
Experimental: ACHN cells were pre-incubated at 37° C. for 6 hours in RPMI 1640 containing 10% by weight of bovine fetal serum in the presence or absence of 30 mM sodium chlorate. A confluent monolayer of the resulting ACHN cells was labeled by incubation for 18 hours in the presence or absence of 30 mM sodium chlorate, in a medium of either of:
Immunoprecipitation was performed as follows, according to the method described in the publication of Kawashima, H. et al. [Int. Immunol., 11, 393-405 (1999); all teachings of which are hereby incorporated by reference] except that beads were washed using buffer A (0.05% Tween 20, 20 mM HEPES-NaOH, 0.15M NaCl, 1 mM CaCl2, 1 mM MgCl2, pH6.8).
Each of the antibody and the Ig chimera shown in FIG. 1 (equivalent to 10 μg) was coupled to Protein A-Sepharose column (equivalent to 10 μL) by a conventional method, to obtain antibody-coupled Protein A-Sepharose or Ig chimera-coupled Protein A-Sepharose. […]
Thereafter, the beads were washed with the buffer A, to obtain precipitates. The resulting precipitates were subjected to SDS-agarose-PAGE, and thereafter, signal ascribed to ^35S label on a gel was detected by autoradiography.

[8] = system: anti-versican monoclonal antibody 2B1; experiment: Sandwich-type ELISA, versican binding to antibody 2B1; conditions: FIG. 4 panel B
Experimental: (§4) ACHN cells were cultured for 2 days in the presence or absence of 100 mM sodium chlorate in RPMI 1640 containing 10% by weight of bovine fetal serum. After the conditioned medium was removed, cells were further cultured for 4 days in a serum-free medium, EX-CELL 610 HSF [manufactured by JRH Bioscience] in the presence or absence of 100 mM sodium chlorate. The conditioned medium was recovered, and spun at 10,000×g at 4° C. for 15 minutes to obtain each of a sodium chlorate-treated conditioned medium and sodium chlorate-untreated conditioned medium.
(§5) Binding between each of the resulting low-sulfated versican and intact versican, and chemokine was examined by sandwich-type enzyme-linked immunosorbent assay. […]
(§6) A conditioned medium of sodium chlorate-treated ACHN cells or a conditioned medium of sodium chlorate-untreated ACHN cells was added to a well of the resulting plate, followed by incubation for 1 hour. […] Binding was determined by measuring absorbance at 620 nm using alkaline phosphatase-conjugated streptavidin and Blue Phos™ substrate. […]

[9] = system: CD44-Ig; experiment: Sandwich-type ELISA, versican binding to CD44-Ig; design: species or system human; conditions: FIG. 4 panel B
CD44-Ig, sequence (P16070 21-178 limits assumed): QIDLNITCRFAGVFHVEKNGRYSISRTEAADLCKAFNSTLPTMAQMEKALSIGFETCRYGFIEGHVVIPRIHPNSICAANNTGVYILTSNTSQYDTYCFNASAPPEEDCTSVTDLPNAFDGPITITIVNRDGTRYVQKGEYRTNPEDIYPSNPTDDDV
Experimental: as §4, §5, §6

[10] = target: T5, C-terminal truncated secondary lymphoid tissue chemokine (Homo sapiens, UniProt O00585); experiment: Sandwich-type ELISA, versican binding to SLC-T; conditions: FIG. 4 panel B
T5 construct: gift: Dr. Melissa Swoop Wills, Vertex Pharmaceutical Co
T5 sequence (O00585 24-102 limits assumed): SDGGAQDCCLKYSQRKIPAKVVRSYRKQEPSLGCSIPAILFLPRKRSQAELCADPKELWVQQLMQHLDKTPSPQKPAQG
Experimental: as §4, §5, §6

[11] = target: T6, stromal cell-derived factor-1α (Homo sapiens, UniProt P48061); experiment: Sandwich-type ELISA, versican binding to SDF-1α; conditions: FIG. 4 panel B
T6 construct: purchased Pepro Tech
Experimental: as §4, §5, §6

[12] = target: T1, L-selectin-Ig; experiment: Binding inhibition assay (ELISA), biotinylated versican to L-selectin-Ig, various concentrations; conditions: dose-dependent, FIG. 2 panel A
Experimental: (§7) Inhibition assay of binding between versican and each of L-selectin, P-selectin and CD44 was performed as follows. First, each well on a 96 well flat bottom microtiter plate (Coster EIA/RIA plate No. 3690) was coated with L-selectin-Ig (3 μg/ml), P-selectin-Ig (4 μg/ml) or CD44-Ig (0.25 μg/ml) by a conventional procedure. […] The plate was incubated at room temperature for 2 hours. Thereafter, the plate was washed with the buffer A, and enzyme-linked immunosorbent assay was performed in the same manner as described in Kawashima, H. et al. [J. Biol. Chem., 275, 35448-35456 (2000)]. Binding was determined by measuring absorbance at 620 nm using alkaline phosphatase-conjugated streptavidin and Blue Phos™ substrate.

[13] = system: P-selectin-Ig; experiment: Binding inhibition assay (ELISA), biotinylated versican to P-selectin-Ig, various concentrations; conditions: dose-dependent, FIG. 2 panel B
Experimental: as §7

[14] = system: CD44-Ig; experiment: Binding inhibition assay (ELISA), biotinylated versican to CD44-Ig, various concentrations; design: species or system human; conditions: FIG. 2 panel C
Experimental: as §7

[15] = target: T1, L-selectin-Ig; experiment: Sandwich-type ELISA, versican binding to L-selectin-Ig; conditions: FIG. 4 panel B
Experimental: as §4, §5, §6

[16] = system: P-selectin-Ig; experiment: Sandwich-type ELISA, versican binding to P-selectin-Ig; conditions: FIG. 4 panel B
Experimental: as §4, §5, §6

[17] = system: secondary lymphoid tissue chemokine; experiment: Sandwich-type ELISA, versican binding to SLC; conditions: FIG. 4 panel B
Experimental: as §4, §5, §6

[18] = target: T2, γ-interferon inducible protein-10; experiment: Sandwich-type ELISA, versican binding to IP-10; conditions: FIG. 4 panel B
Experimental: as §4, §5, §6

[19] = target: T4, platelet factor 4; experiment: Sandwich-type ELISA, versican binding to PF4; conditions: FIG. 4 panel B
Experimental: as §4, §5, §6

[20] = target: T3, stromal cell-derived factor-1β; experiment: Sandwich-type ELISA, versican binding to SDF-1β; conditions: FIG. 4 panel B
Experimental: as §4, §5, §6

[21] = target: monomeric L-selectin; conditions: immobilized ligand; cited from earlier work

T1 sequence (P14151 with tags, fused parts or gaps limits assumed): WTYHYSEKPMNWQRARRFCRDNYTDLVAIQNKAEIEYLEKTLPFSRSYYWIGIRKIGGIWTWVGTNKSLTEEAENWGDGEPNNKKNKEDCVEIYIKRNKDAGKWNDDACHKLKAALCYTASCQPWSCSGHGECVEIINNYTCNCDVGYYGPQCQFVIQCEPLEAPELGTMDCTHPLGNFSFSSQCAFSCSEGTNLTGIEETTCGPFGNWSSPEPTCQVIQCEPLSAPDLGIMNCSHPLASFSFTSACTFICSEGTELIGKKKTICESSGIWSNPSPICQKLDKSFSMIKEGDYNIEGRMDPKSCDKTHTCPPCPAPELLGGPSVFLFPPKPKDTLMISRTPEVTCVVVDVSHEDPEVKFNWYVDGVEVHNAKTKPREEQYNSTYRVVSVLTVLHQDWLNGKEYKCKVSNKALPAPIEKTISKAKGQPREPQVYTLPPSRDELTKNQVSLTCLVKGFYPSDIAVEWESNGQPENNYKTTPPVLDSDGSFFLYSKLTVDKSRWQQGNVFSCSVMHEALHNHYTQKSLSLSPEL

With “GlcAβ1-3GalNAc(4,6-O-disulfate)β1-4GlcAβ1-3GalNAc(4-O-sulfate) [fraction e-1]” the “binding of biotinylated oligosaccharide fraction to L-selectin-Ig” value [1] was “did not bind”, the “binding of biotinylated oligosaccharide fraction to P-selectin-Ig” value [2] was “did not bind” and the “binding of biotinylated oligosaccharide fraction to secondary lymphoid tissue chemokine” value [3] was “did not bind”. The “binding of biotinylated oligosaccharide fraction to γ-interferon inducible protein-10” value [4] was “did not bind”, the “binding of biotinylated oligosaccharide fraction to stromal cell-derived factor-1β” value [5] was “did not bind” and the “binding of biotinylated oligosaccharide fraction to platelet factor 4” value [6] was “moderately bound”.

For “unsulfated versican: versican from ACHN cells treated with 30 mM sodium chlorate”, the “interaction with E-selectin-Ig” value [7] was “did not interact”.

In the case of “GlcAβ1-3GalNAc(4,6-O-disulfate)β1-4GlcAβ1-3GalNAc(4,6-O-disulfate) [fraction e-2]”, the “binding of biotinylated oligosaccharide fraction to L-selectin-Ig” value [1] is reported as “bound”, the “binding of biotinylated oligosaccharide fraction to P-selectin-Ig” value [2] is reported as “bound” and the “binding of biotinylated oligosaccharide fraction to secondary lymphoid tissue chemokine” value [3] is reported as “bound”. The “binding of biotinylated oligosaccharide fraction to γ-interferon inducible protein-10” value [4] was “bound” and the “binding of biotinylated oligosaccharide fraction to stromal cell-derived factor-1β” value [5] was “bound”.

For “low-sulfated versican: versican from conditioned medium of ACHN cells treated with 100 mM sodium chlorate, mainly unsulfated CS/DS chain”, the “binding to anti-versican monoclonal antibody 2B1” value [8] was “bound”, the “binding to CD44-Ig” value [9] was “bound” and the “binding to recombinant truncated-type secondary lymphoid tissue chemokine” value [10] was “scarcely bound”. For the same molecule, the “binding to stromal cell-derived factor-1α” value [11] was “did not bind”.

For keratan sulfate, the “inhibition of binding between biotinylated versican and L-selectin-Ig” value [12] was “not inhibited”, the “inhibition of binding between biotinylated versican and P-selectin-Ig” value [13] was “not inhibited” and the “inhibition of binding between biotinylated versican and CD44-Ig” value [14] was “not inhibited”.

In the case of “intact versican: versican from conditioned medium of sodium chlorate-untreated ACHN cells”, the “binding to anti-versican monoclonal antibody 2B1” value [8] is reported as “bound”, the “binding to CD44-Ig” value [9] is reported as “bound” and the “binding to L-selectin-Ig” value [15] is reported as “bound”. The “binding to P-selectin-Ig” value [16] was “bound”, the “binding to secondary lymphoid tissue chemokine” value [17] was “remarkably bound” and the “binding to γ-interferon inducible protein-10” value [18] was “remarkably bound”. The “binding to platelet factor 4” value [19] was “remarkably bound”, the “binding to stromal cell-derived factor-1β” value [20] was “remarkably bound” and the “binding to recombinant truncated-type secondary lymphoid tissue chemokine” value [10] was “scarcely bound”. The “binding to stromal cell-derived factor-1α” value [11] was “did not bind”.

B1: GlyCAM-1: known ligand of L-selectin (protein, UniProt Q02596 20-151, looked up)
Glycosylation-dependent cell …: LPGSKDELQMKTQPTDAIPAAQSTPTSYTSEESTSSKDLSKEPSIFREELISKDNVVIESTKPENQEAQDGLRSGSSQLEETTRPTTSAATTSEENLTKSSQTVEEELGKIIEGFVTGAEDIISGASRITKS
In the case of B1, the Kd [21] is listed as 108 µM and the association rate [21] is listed as ≥ 10^5 M^−1s^−1.

Source: patent US20060211651A1, “Persulfated oligosaccharide acting on selectins and chemokine” (Taisho Pharmaceutical Co., Ltd., priority 2002, published 2006)
